This note sets out measurements from PubChem BioAssay (NCI).

Test systems include HCT-15 colon; A498 renal; CCRF-CEM leukemia; MOLT-4 leukemia; RPMI-8226 leukemia; COLO 205 colon; M14 melanoma; OVCAR-5 ovarian; SF-539 CNS; ACHN renal.
Common to all, as to assay: growth of human tumour cells (NCI), 48 h

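1) Cells in 96-well plates. 2) Compound, 48 h, 5 concentrations. 3) Linear interpolation between surrounding doses. 4) Unreached endpoint = highest concentration. Here, GI50 denotes the concentration required for 50% inhibition of growth. The concentration for full growth arrest is given as TGI.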

As to `CC1(C)CC(n2cnc(-c3ccc(F)cc3)c2-c2ccnc(N)n2)CC(C)(C)N1`, the GI50 in the experiment with HCT-15 colon is 17.7 µM; with A498 renal it was above 25 µM; in the experiment with CCRF-CEM leukemia, above 25 µM; in the experiment with MOLT-4 leukemia it was 17.4 µM; with RPMI-8226 leukemia, above 25 µM; in the experiment with COLO 205 colon, 12.7 µM. Also, the GI50 with M14 melanoma is above 25 µM; with OVCAR-5 ovarian, 24.4 µM; with SF-539 CNS, above 25 µM; in the experiment on ACHN renal, 10.3 µM. Besides, the TGI in the experiment on HCT-15 colon, with A498 renal, in the experiment on CCRF-CEM leukemia, in the experiment with MOLT-4 leukemia, in the experiment with RPMI-8226 leukemia and in the experiment on COLO 205 colon was above 25 µM throughout. Besides, the TGI in the experiment with M14 melanoma, in the experiment with OVCAR-5 ovarian, in the experiment with SF-539 CNS and with ACHN renal was above 25 µM throughout.

On to `Cc1cc(I)cc(CN(C)CCN2CCCC2)c1O`, for which the GI50 is 24.4 µM with HCT-15 colon; 32.7 µM with A498 renal; 22.3 µM in the experiment on CCRF-CEM leukemia; 3.35 µM in the experiment on MOLT-4 leukemia; 19.2 µM in the experiment on RPMI-8226 leukemia; 19 µM with COLO 205 colon. In addition, the GI50 in the experiment on M14 melanoma was 15.8 µM; in the experiment with OVCAR-5 ovarian, 32.8 µM; with SF-539 CNS, 21 µM; in the experiment with ACHN renal it was 25.7 µM. The TGI with HCT-15 colon was found to be 73.7 µM; in the experiment with A498 renal, 67.2 µM; in the experiment on CCRF-CEM leukemia it was 86 µM; in the experiment on MOLT-4 leukemia, 21 µM; in the experiment with RPMI-8226 leukemia, 46.2 µM; in the experiment with COLO 205 colon, 40.2 µM. Also, the TGI with M14 melanoma was 34.8 µM; in the experiment with OVCAR-5 ovarian, above 93.6 µM; in the experiment on SF-539 CNS, 53.3 µM; in the experiment with ACHN renal, above 84.4 µM.

For the compound `O=C1c2cc([N+](=O)[O-])ccc2-c2cccc(F)c21`, the TGI in the experiment on HCT-15 colon, with A498 renal, in the experiment on CCRF-CEM leukemia, in the experiment on MOLT-4 leukemia, in the experiment with RPMI-8226 leukemia and with COLO 205 colon was above 100 µM each time. Moreover, the TGI in the experiment on M14 melanoma, in the experiment on OVCAR-5 ovarian, in the experiment with SF-539 CNS and with ACHN renal was above 100 µM each time.

For `COC1OC(C)C(O)CC1OS(=O)(=O)c1ccc(C)cc1` (centres undefined), the TGI in the experiment on HCT-15 colon, with A498 renal, in the experiment with CCRF-CEM leukemia, in the experiment with MOLT-4 leukemia, in the experiment on RPMI-8226 leukemia and with COLO 205 colon was above 100 µM in each case. Also, the TGI in the experiment with M14 melanoma, in the experiment with OVCAR-5 ovarian, in the experiment on SF-539 CNS and in the experiment on ACHN renal was above 100 µM throughout.

For `C=CCC(C(=O)O)c1ccccc1` (centres undefined), the TGI in the experiment with HCT-15 colon, in the experiment with A498 renal, with CCRF-CEM leukemia, with MOLT-4 leukemia, in the experiment with RPMI-8226 leukemia and with COLO 205 colon was above 100 µM throughout. Besides, the TGI in the experiment with M14 melanoma, in the experiment with OVCAR-5 ovarian, in the experiment with SF-539 CNS and in the experiment on ACHN renal was above 100 µM each time.

`CC(=O)N/C(=C\c1cccc([N+](=O)[O-])c1)c1nc2c3c(ccc2[nH]1)C(=O)c1ccccc1C3=O`: the TGI in the experiment on HCT-15 colon was above 100 µM; in the experiment on A498 renal, above 100 µM; in the experiment on CCRF-CEM leukemia, above 100 µM; in the experiment on MOLT-4 leukemia it was above 62.9 µM; in the experiment with RPMI-8226 leukemia, above 100 µM; in the experiment on COLO 205 colon, above 100 µM. The TGI is above 100 µM in the experiment on M14 melanoma, above 100 µM with OVCAR-5 ovarian, above 100 µM in the experiment with SF-539 CNS and 47.9 µM in the experiment on ACHN renal.

In the case of `NC(=S)N/N=C(\C(=O)Nc1cccc([N+](=O)[O-])c1)c1nc2ccc([N+](=O)[O-])cc2[nH]c1=O`, the TGI with HCT-15 colon, in the experiment on A498 renal, in the experiment with CCRF-CEM leukemia, in the experiment on MOLT-4 leukemia, in the experiment on RPMI-8226 leukemia and with COLO 205 colon was above 100 µM in each case. For the same compound, the TGI in the experiment with M14 melanoma, in the experiment on OVCAR-5 ovarian, in the experiment on SF-539 CNS and with ACHN renal was above 100 µM each time.

Take `COc1ccc(C(=O)OC2C=COC(C)C2OC(=O)c2ccc(OC)cc2)cc1` (centres undefined): the TGI was 33 µM in the experiment with HCT-15 colon; above 100 µM in the experiment on A498 renal; 52.4 µM with CCRF-CEM leukemia; 56 µM with MOLT-4 leukemia; 47.2 µM in the experiment with RPMI-8226 leukemia; above 100 µM with COLO 205 colon. Also, the TGI in the experiment with M14 melanoma was 35.9 µM; in the experiment on OVCAR-5 ovarian it was above 100 µM; in the experiment on SF-539 CNS, 33.6 µM; with ACHN renal, above 100 µM.

For `CCC[CH2][Sn]([CH2]CCC)([O]C(=O)C(N)CSC)[O]C(=O)C(N)CSC` (centres undefined), the GI50 in the experiment on HCT-15 colon is 11.6 µM; in the experiment with A498 renal, 3.91 µM; in the experiment with CCRF-CEM leukemia, 1.73 µM; in the experiment with MOLT-4 leukemia, 2.42 µM; in the experiment with RPMI-8226 leukemia, 2.16 µM; with COLO 205 colon it was 6.5 µM. Besides, the GI50 was 10.5 µM in the experiment with M14 melanoma, 15.7 µM in the experiment with OVCAR-5 ovarian, 13.3 µM with SF-539 CNS and 12.3 µM with ACHN renal. Moreover, the TGI turned out to be 25.4 µM in the experiment on HCT-15 colon; 6.43 µM in the experiment on CCRF-CEM leukemia; 7.65 µM in the experiment on MOLT-4 leukemia; 7.58 µM in the experiment with RPMI-8226 leukemia; 19.9 µM with COLO 205 colon; 16.2 µM in the experiment on M14 melanoma. Also, the TGI was determined as 35.6 µM with OVCAR-5 ovarian, 26.7 µM in the experiment with SF-539 CNS and 30.2 µM in the experiment on ACHN renal.

`CC[Si](CC)(CC)OC[C@]1([C@@H]2COC(C)(C)O2)CC=CC(=O)O1`: the GI50 is 35.7 µM in the experiment on HCT-15 colon; 20.9 µM in the experiment with A498 renal; 6.46 µM in the experiment on CCRF-CEM leukemia; 31.7 µM with MOLT-4 leukemia; 18.3 µM in the experiment with RPMI-8226 leukemia; 40.4 µM in the experiment on COLO 205 colon. Moreover, the GI50 in the experiment on M14 melanoma was 33 µM; with OVCAR-5 ovarian it was above 100 µM; with SF-539 CNS it was 34.5 µM; in the experiment on ACHN renal it was 42.8 µM. In addition, the TGI with HCT-15 colon is above 100 µM; in the experiment on A498 renal, 75.7 µM; in the experiment on CCRF-CEM leukemia, above 100 µM; in the experiment with MOLT-4 leukemia, above 100 µM; with RPMI-8226 leukemia it was 65.6 µM; with COLO 205 colon, above 100 µM. For the same compound, the TGI with M14 melanoma, in the experiment on OVCAR-5 ovarian, with SF-539 CNS and in the experiment on ACHN renal was above 100 µM throughout.
